Results taken from the supplement of paper PMC11208160.

assay: recombinant barcode read abundance after kanamycin selection (control-corrected) (log10(CPM+1)); higher = more efficient recombination; sequences stand for … in AGTGCAGAGAAAATCGGCCAGTTTTCTCTGCCTGCAGTCCGCATGCCGT…ATTTATGCAGCGGACTGCCTTTCTCCCAAAGTGATAAACCGGACAGTATCATGGACCGGTTTTCCCGGTAATCCGTATTTGCAAGGTTGGTTTCACT; site = the 11-nt target
Description: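 Same pooled E. coli target screen (IS621 bridge recombinase, kanamycin selection, control-corrected CPM, mean of 2 biological replicates). Here the two core-binding nucleotides of the LTG and RTG of the bridge RNA target-binding loop are mutated. Target and donor CT cores are held constant, and the other 9 guide positions match the target. The target is read from the library oligo sequence. Molecule = full bridge RNA written as DNA: nt 1-80 from the library oligo, rest WT scaffold.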

| Sequence | recombinant barcode read abundance (log10) |
| --- | --- |
| AGGAGGTCTTGGGTTCTAACCTGTTGCCTTG [AGGAGGTCTAG_LTGcore_CT_RTGcore_CA] (site AGGAGGTCTAG) (LTG core: CT, RTG core: CA) | 0.336 |
| AGGAGGTGATGGGTTCTAACCTGTTGCCTTC [AGGAGGTCTAG_LTGcore_GA_RTGcore_GA] (site AGGAGGTCTAG) (LTG core: GA, RTG core: GA) | 0.218 |
| AGGAGGTGGTGGGTTCTAACCTGTTGCCTCC [AGGAGGTCTAG_LTGcore_GG_RTGcore_GG] (site AGGAGGTCTAG) (LTG core: GG, RTG core: GG) | 0.0671 |
| AGGAGGTGTTGGGTTCTAACCTGTTGCCTAC [AGGAGGTCTAG_LTGcore_GT_RTGcore_GT] (site AGGAGGTCTAG) (LTG core: GT, RTG core: GT) | 0.0506 |
| AGGAGGTTGTGGGTTCTAACCTGTTGCCTAG [AGGAGGTCTAG_LTGcore_TG_RTGcore_CT] (site AGGAGGTCTAG) (LTG core: TG, RTG core: CT) | 0.42 |
| AGGAGGTTGTGGGTTCTAACCTGTTGCCTCA [AGGAGGTCTAG_LTGcore_TG_RTGcore_TG] (site AGGAGGTCTAG) (LTG core: TG, RTG core: TG) | 0.0756 |
| AGGCCTCACTGGGTTCTAACCTGTTGCCTGT [AGGCCTCCTAG_LTGcore_AC_RTGcore_AC] (site AGGCCTCCTAG) (LTG core: AC, RTG core: AC) | 0.113 |
| AGGCCTCAGTGGGTTCTAACCTGTTGCCTAG [AGGCCTCCTAG_LTGcore_AG_RTGcore_CT] (site AGGCCTCCTAG) (LTG core: AG, RTG core: CT) | 0.0227 |
| AGGCCTCATTGGGTTCTAACCTGTTGCCTAG [AGGCCTCCTAG_LTGcore_AT_RTGcore_CT] (site AGGCCTCCTAG) (LTG core: AT, RTG core: CT) | 0.254 |
| AGGCCTCCCTGGGTTCTAACCTGTTGCCTGG [AGGCCTCCTAG_LTGcore_CC_RTGcore_CC] (site AGGCCTCCTAG) (LTG core: CC, RTG core: CC) | 0.146 |
| AGGCCTCCTTGGGTTCTAACCTGTTGCCTAA [AGGCCTCCTAG_LTGcore_CT_RTGcore_TT] (site AGGCCTCCTAG) (LTG core: CT, RTG core: TT) | 0.109 |
| AGGCCTCCTTGGGTTCTAACCTGTTGCCTAC [AGGCCTCCTAG_LTGcore_CT_RTGcore_GT] (site AGGCCTCCTAG) (LTG core: CT, RTG core: GT) | 1.06 |
| AGGCCTCCTTGGGTTCTAACCTGTTGCCTCC [AGGCCTCCTAG_LTGcore_CT_RTGcore_GG] (site AGGCCTCCTAG) (LTG core: CT, RTG core: GG) | 0.102 |
| AGGCCTCCTTGGGTTCTAACCTGTTGCCTGA [AGGCCTCCTAG_LTGcore_CT_RTGcore_TC] (site AGGCCTCCTAG) (LTG core: CT, RTG core: TC) | 0.578 |
| AGGCCTCCTTGGGTTCTAACCTGTTGCCTGT [AGGCCTCCTAG_LTGcore_CT_RTGcore_AC] (site AGGCCTCCTAG) (LTG core: CT, RTG core: AC) | 0.0115 |
| AGGCCTCGATGGGTTCTAACCTGTTGCCTTC [AGGCCTCCTAG_LTGcore_GA_RTGcore_GA] (site AGGCCTCCTAG) (LTG core: GA, RTG core: GA) | 0.206 |
| AGGCCTCGTTGGGTTCTAACCTGTTGCCTAC [AGGCCTCCTAG_LTGcore_GT_RTGcore_GT] (site AGGCCTCCTAG) (LTG core: GT, RTG core: GT) | 0.0637 |
| AGGCGGGAATGGGTTCTAACCTGTTGCGGAG [AGGCGGGCTCC_LTGcore_AA_RTGcore_CT] (site AGGCGGGCTCC) (LTG core: AA, RTG core: CT) | 0.668 |
| AGGCGGGAGTGGGTTCTAACCTGTTGCGGAG [AGGCGGGCTCC_LTGcore_AG_RTGcore_CT] (site AGGCGGGCTCC) (LTG core: AG, RTG core: CT) | 0.325 |
| AGGCGGGCTTGGGTTCTAACCTGTTGCGGCC [AGGCGGGCTCC_LTGcore_CT_RTGcore_GG] (site AGGCGGGCTCC) (LTG core: CT, RTG core: GG) | 0.367 |
| AGGCGGGCTTGGGTTCTAACCTGTTGCGGGC [AGGCGGGCTCC_LTGcore_CT_RTGcore_GC] (site AGGCGGGCTCC) (LTG core: CT, RTG core: GC) | 0.249 |
| AGGCGGGCTTGGGTTCTAACCTGTTGCGGGT [AGGCGGGCTCC_LTGcore_CT_RTGcore_AC] (site AGGCGGGCTCC) (LTG core: CT, RTG core: AC) | 0.945 |

| Sequence | recombinant barcode read abundance (log10) |
| --- | --- |
| AGGCGGGCTTGGGTTCTAACCTGTTGCGGTT [AGGCGGGCTCC_LTGcore_CT_RTGcore_AA] (site AGGCGGGCTCC) (LTG core: CT, RTG core: AA) | 0.0746 |
| AGGCGGGGCTGGGTTCTAACCTGTTGCGGAG [AGGCGGGCTCC_LTGcore_GC_RTGcore_CT] (site AGGCGGGCTCC) (LTG core: GC, RTG core: CT) | 0.207 |
| AGGCGGGGTTGGGTTCTAACCTGTTGCGGAC [AGGCGGGCTCC_LTGcore_GT_RTGcore_GT] (site AGGCGGGCTCC) (LTG core: GT, RTG core: GT) | 0.0704 |
| AGGCGGGTCTGGGTTCTAACCTGTTGCGGGA [AGGCGGGCTCC_LTGcore_TC_RTGcore_TC] (site AGGCGGGCTCC) (LTG core: TC, RTG core: TC) | 0.156 |
| AGGCGGTATTGGGTTCTAACCTGTTGCTTAG [AGGCGGTCTAA_LTGcore_AT_RTGcore_CT] (site AGGCGGTCTAA) (LTG core: AT, RTG core: CT) | 0.127 |
| AGGCGGTCATGGGTTCTAACCTGTTGCTTTG [AGGCGGTCTAA_LTGcore_CA_RTGcore_CA] (site AGGCGGTCTAA) (LTG core: CA, RTG core: CA) | 0.128 |
| AGGCGGTCTTGGGTTCTAACCTGTTGCTTAC [AGGCGGTCTAA_LTGcore_CT_RTGcore_GT] (site AGGCGGTCTAA) (LTG core: CT, RTG core: GT) | 1.26 |
| AGGCGGTTTTGGGTTCTAACCTGTTGCTTAA [AGGCGGTCTAA_LTGcore_TT_RTGcore_TT] (site AGGCGGTCTAA) (LTG core: TT, RTG core: TT) | 0.0993 |
| AGTCTTAATTGGGTTCTAACCTGTTGCCAAG [AGTCTTACTTG_LTGcore_AT_RTGcore_CT] (site AGTCTTACTTG) (LTG core: AT, RTG core: CT) | 0.295 |
| AGTCTTACATGGGTTCTAACCTGTTGCCAAG [AGTCTTACTTG_LTGcore_CA_RTGcore_CT] (site AGTCTTACTTG) (LTG core: CA, RTG core: CT) | 0.033 |
| AGTCTTACGTGGGTTCTAACCTGTTGCCAAG [AGTCTTACTTG_LTGcore_CG_RTGcore_CT] (site AGTCTTACTTG) (LTG core: CG, RTG core: CT) | 0.0383 |
| AGTCTTACTTGGGTTCTAACCTGTTGCCAAA [AGTCTTACTTG_LTGcore_CT_RTGcore_TT] (site AGTCTTACTTG) (LTG core: CT, RTG core: TT) | 0.0465 |
| AGTCTTACTTGGGTTCTAACCTGTTGCCACG [AGTCTTACTTG_LTGcore_CT_RTGcore_CG] (site AGTCTTACTTG) (LTG core: CT, RTG core: CG) | 0.0125 |
| AGTCTTACTTGGGTTCTAACCTGTTGCCAGC [AGTCTTACTTG_LTGcore_CT_RTGcore_GC] (site AGTCTTACTTG) (LTG core: CT, RTG core: GC) | 0.13 |
| AGTCTTACTTGGGTTCTAACCTGTTGCCAGG [AGTCTTACTTG_LTGcore_CT_RTGcore_CC] (site AGTCTTACTTG) (LTG core: CT, RTG core: CC) | 0.196 |
| AGTCTTATCTGGGTTCTAACCTGTTGCCAGA [AGTCTTACTTG_LTGcore_TC_RTGcore_TC] (site AGTCTTACTTG) (LTG core: TC, RTG core: TC) | 0.0509 |
| ATGCTTTACTGGGTTCTAACCTGTTGCCTAG [ATGCTTTCTAG_LTGcore_AC_RTGcore_CT] (site ATGCTTTCTAG) (LTG core: AC, RTG core: CT) | 0.0722 |
| ATGCTTTCATGGGTTCTAACCTGTTGCCTTG [ATGCTTTCTAG_LTGcore_CA_RTGcore_CA] (site ATGCTTTCTAG) (LTG core: CA, RTG core: CA) | 0.1 |
| ATGCTTTCGTGGGTTCTAACCTGTTGCCTCG [ATGCTTTCTAG_LTGcore_CG_RTGcore_CG] (site ATGCTTTCTAG) (LTG core: CG, RTG core: CG) | 0.295 |
| ATGCTTTCTTGGGTTCTAACCTGTTGCCTAT [ATGCTTTCTAG_LTGcore_CT_RTGcore_AT] (site ATGCTTTCTAG) (LTG core: CT, RTG core: AT) | 0.128 |
| ATGCTTTCTTGGGTTCTAACCTGTTGCCTGC [ATGCTTTCTAG_LTGcore_CT_RTGcore_GC] (site ATGCTTTCTAG) (LTG core: CT, RTG core: GC) | 0.295 |
| ATGCTTTCTTGGGTTCTAACCTGTTGCCTGT [ATGCTTTCTAG_LTGcore_CT_RTGcore_AC] (site ATGCTTTCTAG) (LTG core: CT, RTG core: AC) | 0.101 |
